Laboratory results reported in ChEMBL document CHEMBL1201862, “PubChem BioAssay data set” (2004).
Activity calls are given as the source filed them.

Columns and labels:
Saccharomyces cerevisiae = experiment: NALP1 inhibitor project selectivity study, Caspase-1/ASC signal blockade IC50 in S. cerevisiae (AID 488863); type: functional, organism-based
[1] = target: T1, Corticotropin-releasing factor receptor 2/Corticotropin-releasing factor-binding protein (Homo sapiens, UniProt P24387+Q13324); experiment: activators of CRF receptor 2 with binding protein – uHTS hits, confirmation (AID 602473); type: functional; settings: read-out: EC50_Mean
T1 sequence (Q13324 whole entry): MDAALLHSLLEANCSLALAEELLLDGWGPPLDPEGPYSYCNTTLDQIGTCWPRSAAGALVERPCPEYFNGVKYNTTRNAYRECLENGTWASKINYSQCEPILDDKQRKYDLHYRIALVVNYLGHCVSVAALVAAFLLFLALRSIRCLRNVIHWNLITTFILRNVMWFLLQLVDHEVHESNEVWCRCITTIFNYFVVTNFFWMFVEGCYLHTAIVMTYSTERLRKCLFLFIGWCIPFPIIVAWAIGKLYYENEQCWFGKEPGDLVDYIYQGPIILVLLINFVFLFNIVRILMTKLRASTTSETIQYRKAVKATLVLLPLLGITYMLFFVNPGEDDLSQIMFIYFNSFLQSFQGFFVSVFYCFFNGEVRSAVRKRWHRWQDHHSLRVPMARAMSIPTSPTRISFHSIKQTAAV
T1 sequence (P24387 whole entry): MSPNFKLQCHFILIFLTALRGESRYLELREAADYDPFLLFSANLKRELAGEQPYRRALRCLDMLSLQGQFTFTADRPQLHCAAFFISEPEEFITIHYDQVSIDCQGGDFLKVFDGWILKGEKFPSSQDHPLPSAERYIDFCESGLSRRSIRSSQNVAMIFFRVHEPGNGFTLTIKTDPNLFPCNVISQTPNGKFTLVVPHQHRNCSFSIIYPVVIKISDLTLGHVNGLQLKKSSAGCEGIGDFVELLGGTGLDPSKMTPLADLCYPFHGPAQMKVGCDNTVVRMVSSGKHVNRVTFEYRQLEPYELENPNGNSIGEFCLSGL

[2] = target: NACHT, LRR and PYD domains-containing protein 1 (Homo sapiens, UniProt Q9C000); experiment: NALP1 inhibitors in yeast, dose response, luminescent (AID 488860); type: functional
[3] = target: G-protein coupled receptor 55 (Homo sapiens, UniProt Q9Y2T6); experiment: GPR55 agonists via beta-arrestin recruitment, primary screen, imaging, U2OS cells, beta-arrestin-GFP redistribution (AID 1961); type: functional
G-protein coupled receptor 55, sequence (Q9Y2T6 whole entry): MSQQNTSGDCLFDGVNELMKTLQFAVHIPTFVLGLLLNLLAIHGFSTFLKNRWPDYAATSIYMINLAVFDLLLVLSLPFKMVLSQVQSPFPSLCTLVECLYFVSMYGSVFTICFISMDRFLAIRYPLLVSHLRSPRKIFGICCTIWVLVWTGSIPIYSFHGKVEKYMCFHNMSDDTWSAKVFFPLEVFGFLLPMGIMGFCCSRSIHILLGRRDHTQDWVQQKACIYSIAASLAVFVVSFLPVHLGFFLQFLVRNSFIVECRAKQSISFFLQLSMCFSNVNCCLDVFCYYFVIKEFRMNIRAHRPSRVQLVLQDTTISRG

[4] = target: Voltage-dependent T-type calcium channel subunit alpha-1H (Homo sapiens, UniProt O95180); experiment: Cav3.2 T-type channel inhibitors, cell-based, synthetic library set 1, calcium flux (AID 493022); type: functional
Voltage-dependent T-type calcium channel subunit alpha-1H, sequence (O95180 whole entry): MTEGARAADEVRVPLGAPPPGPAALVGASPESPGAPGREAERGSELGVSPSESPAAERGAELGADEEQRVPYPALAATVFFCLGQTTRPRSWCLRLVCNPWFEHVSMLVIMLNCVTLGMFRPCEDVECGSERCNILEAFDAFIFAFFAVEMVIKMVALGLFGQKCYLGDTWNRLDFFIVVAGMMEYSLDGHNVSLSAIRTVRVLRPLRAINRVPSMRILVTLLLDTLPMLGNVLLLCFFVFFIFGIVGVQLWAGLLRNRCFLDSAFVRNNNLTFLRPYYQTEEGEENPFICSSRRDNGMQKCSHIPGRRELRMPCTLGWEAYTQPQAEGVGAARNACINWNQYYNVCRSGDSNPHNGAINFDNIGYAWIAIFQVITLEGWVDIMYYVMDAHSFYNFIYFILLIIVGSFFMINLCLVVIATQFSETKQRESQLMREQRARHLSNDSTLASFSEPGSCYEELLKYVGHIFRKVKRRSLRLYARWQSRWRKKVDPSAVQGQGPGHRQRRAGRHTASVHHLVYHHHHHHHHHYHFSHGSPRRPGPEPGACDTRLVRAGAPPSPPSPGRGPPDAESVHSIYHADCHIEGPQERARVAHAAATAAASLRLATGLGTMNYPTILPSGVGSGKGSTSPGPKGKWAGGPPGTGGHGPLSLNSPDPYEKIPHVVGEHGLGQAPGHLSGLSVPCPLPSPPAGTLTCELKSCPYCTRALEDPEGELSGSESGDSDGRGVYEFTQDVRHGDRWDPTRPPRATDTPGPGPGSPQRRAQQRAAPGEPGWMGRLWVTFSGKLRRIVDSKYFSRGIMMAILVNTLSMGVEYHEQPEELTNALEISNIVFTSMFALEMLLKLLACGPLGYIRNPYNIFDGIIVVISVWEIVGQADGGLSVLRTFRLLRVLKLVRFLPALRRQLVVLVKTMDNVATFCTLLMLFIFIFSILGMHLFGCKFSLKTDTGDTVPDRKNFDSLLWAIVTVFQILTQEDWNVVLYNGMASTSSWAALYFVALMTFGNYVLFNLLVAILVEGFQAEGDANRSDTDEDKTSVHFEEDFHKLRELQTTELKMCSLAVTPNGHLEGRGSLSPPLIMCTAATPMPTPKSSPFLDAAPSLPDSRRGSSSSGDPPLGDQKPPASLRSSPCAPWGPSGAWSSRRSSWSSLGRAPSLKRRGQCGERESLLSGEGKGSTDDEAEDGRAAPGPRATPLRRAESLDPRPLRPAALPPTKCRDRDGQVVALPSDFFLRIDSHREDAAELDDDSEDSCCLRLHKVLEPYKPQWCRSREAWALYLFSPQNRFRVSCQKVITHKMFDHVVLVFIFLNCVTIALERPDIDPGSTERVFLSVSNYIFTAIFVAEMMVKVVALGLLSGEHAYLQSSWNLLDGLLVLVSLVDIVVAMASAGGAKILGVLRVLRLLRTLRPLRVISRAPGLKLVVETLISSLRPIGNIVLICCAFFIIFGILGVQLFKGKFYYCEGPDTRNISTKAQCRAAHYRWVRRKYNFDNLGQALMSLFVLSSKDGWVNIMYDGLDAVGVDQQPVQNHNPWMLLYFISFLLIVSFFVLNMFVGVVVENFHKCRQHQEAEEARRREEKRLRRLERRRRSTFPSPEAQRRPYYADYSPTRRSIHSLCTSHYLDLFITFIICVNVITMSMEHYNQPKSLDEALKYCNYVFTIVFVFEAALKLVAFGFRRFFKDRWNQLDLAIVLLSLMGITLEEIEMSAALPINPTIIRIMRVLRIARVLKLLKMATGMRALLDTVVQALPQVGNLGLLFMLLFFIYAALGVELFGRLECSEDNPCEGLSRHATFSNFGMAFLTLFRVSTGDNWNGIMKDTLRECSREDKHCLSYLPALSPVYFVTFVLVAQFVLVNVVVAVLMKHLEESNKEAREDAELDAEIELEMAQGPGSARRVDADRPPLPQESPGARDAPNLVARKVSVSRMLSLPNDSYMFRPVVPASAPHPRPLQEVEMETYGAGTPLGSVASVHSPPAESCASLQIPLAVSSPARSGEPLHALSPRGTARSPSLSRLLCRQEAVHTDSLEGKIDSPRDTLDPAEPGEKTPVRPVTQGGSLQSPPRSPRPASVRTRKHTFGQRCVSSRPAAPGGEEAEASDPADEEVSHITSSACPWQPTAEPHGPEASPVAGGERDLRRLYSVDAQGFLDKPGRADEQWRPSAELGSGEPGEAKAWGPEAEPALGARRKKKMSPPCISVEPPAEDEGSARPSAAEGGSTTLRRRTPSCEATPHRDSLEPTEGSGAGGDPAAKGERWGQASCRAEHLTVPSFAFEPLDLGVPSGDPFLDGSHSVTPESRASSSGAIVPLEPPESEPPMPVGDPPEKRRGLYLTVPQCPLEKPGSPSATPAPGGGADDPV

[5] = HepG2 cell cytotoxicity, dose response, cytotoxicity control, plate reader, cherry-pick, antagonist series (AID 743416); type: functional, cell-based
[6] = target: T2, Neuropeptides B/W receptor type 1 (Homo sapiens, UniProt P48145); experiment: Fluorescence-based dose response cell-based high throughput screening assay to identify antagonists of the G-protein coupled receptor 7 (GPR7). [Related pubchem assays: 1952 (Screening assay (GPR7 antagonists).), 1880 (Summary AID.)]; type: functional
T2 sequence (P48145 whole entry): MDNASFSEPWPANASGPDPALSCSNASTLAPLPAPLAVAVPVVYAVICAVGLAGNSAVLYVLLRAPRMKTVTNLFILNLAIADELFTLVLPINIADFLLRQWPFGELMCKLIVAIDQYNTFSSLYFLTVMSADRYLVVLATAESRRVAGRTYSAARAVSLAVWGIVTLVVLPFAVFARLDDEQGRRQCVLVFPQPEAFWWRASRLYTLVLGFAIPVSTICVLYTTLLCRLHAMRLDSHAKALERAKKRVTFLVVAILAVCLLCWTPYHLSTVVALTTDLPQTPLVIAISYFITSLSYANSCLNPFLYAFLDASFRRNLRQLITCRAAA

[7] = HEK293 cell cytotoxicity, dose response, cytotoxicity control, plate reader, cherry-picked samples (AID 743446); type: functional, cell-based
[8] = A549 cell cytotoxicity, dose response, cytotoxicity control, plate reader, cherry-pick, antagonist series (AID 743412); type: functional, cell-based
[9] = target: T3, Melanin-concentrating hormone receptor 1 (Homo sapiens, UniProt Q99705); experiment: Fluorescence-based counterscreen for antagonists of the G-protein coupled receptor 7 (GPR7): cell-based high throughput dose response assay to identify antagonists of the melanin-concentrating hormone receptor 1 (MCHR1).; type: functional
T3 sequence (Q99705 whole entry): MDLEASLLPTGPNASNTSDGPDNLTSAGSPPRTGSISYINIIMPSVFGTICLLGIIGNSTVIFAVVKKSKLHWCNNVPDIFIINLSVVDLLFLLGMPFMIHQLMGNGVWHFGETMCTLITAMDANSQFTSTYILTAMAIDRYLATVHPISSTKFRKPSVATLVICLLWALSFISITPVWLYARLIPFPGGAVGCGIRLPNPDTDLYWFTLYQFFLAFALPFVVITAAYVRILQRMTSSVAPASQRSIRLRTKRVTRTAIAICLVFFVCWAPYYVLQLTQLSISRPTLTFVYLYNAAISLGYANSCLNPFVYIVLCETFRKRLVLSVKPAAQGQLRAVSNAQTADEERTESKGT

[10] = target: T3, Melanin-concentrating hormone receptor 1; experiment: Late-stage fluorescence-based counterscreen for antagonists of the G-protein coupled receptor 7 (GPR7): cell-based dose response assay to identify antagonists of the melanin-concentrating hormone receptor 1 (MCHR1). [Related pubchem assays (depositor defined):AID1861, AID1880, AID1952, AID2148, AID2251, AID2257, AID485339]; type: functional
[11] = target: T2, Neuropeptides B/W receptor type 1; experiment: GPR7 antagonist potency, late-stage follow-up, cell-based, fluorescence, dose response (AID 463251); type: functional
Hexokinase = Hexokinase (Trypanosoma brucei, UniProt Q38C41); experiment: Confirmation assay for inhibitors of Trypanosoma brucei hexokinase 1-Analogue-first series. [Related pubchem assays (depositor defined):AID1430, AID1632, AID2516, AID2560, AID2579, AID2600, AID449725, AID492951]; type: functional
Hexokinase, sequence (Q38C41 whole entry): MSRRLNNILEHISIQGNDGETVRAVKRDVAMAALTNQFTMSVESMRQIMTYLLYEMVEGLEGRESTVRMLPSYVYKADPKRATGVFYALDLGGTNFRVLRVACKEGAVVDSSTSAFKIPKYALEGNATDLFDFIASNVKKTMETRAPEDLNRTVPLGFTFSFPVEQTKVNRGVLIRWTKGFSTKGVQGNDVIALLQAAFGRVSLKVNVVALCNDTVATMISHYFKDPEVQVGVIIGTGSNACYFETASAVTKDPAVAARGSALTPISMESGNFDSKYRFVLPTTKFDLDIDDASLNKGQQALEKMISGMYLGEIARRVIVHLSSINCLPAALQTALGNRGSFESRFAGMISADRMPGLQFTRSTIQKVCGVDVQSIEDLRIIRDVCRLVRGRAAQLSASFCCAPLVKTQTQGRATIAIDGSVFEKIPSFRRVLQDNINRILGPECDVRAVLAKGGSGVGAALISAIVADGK

[12] = target: Glucose-6-phosphate 1-dehydrogenase (Homo sapiens, UniProt P11413); experiment: human G6PD enzyme inhibitors, dose response, selectivity assay for P. falciparum G6PD inhibitor project, biochemical, fluorescence (AID 504792); type: functional
Glucose-6-phosphate 1-dehydrogenase, sequence (P11413 whole entry): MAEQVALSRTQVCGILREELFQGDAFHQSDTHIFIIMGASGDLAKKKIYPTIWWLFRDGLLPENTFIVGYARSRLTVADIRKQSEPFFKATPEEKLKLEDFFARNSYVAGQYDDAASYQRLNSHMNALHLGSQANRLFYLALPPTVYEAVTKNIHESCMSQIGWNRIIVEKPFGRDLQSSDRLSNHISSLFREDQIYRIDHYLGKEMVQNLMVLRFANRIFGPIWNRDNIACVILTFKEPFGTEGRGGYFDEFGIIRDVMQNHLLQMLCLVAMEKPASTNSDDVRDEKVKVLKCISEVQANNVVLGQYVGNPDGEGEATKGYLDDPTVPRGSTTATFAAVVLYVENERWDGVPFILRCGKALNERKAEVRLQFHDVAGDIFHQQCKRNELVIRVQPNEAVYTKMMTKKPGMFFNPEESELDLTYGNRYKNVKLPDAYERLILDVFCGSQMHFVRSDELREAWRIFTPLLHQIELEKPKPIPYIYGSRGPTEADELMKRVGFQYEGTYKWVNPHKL

[13] = target: T4, Rac GTPase-activating protein 1 (Homo sapiens, UniProt Q9H0H5); experiment: MgcRacGAP GTPase-activating activity inhibitors, confirmation, biochemical, ADP Hunter fluorescence, primary and confirmatory (AID 624330); type: functional
T4 sequence (Q9H0H5 whole entry): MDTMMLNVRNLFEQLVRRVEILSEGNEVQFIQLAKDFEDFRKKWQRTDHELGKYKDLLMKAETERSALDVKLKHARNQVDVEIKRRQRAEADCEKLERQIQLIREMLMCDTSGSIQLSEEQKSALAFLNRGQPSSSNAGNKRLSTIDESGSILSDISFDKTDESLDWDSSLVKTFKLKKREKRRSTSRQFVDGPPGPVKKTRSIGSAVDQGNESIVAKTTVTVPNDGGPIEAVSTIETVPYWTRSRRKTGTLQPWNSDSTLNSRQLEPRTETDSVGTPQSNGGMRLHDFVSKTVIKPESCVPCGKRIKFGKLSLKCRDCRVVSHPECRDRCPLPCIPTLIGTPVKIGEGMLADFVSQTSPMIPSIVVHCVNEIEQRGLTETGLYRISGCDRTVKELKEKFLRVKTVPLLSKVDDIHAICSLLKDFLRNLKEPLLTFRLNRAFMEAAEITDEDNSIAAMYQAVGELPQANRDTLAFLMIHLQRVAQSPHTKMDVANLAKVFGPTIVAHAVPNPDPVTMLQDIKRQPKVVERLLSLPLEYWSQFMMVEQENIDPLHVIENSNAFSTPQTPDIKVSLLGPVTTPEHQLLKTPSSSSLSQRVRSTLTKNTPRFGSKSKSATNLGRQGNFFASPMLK

Q: For `COc1ccc(C2=C/C(=C/c3cccnc3)C(=O)O2)cc1OC`, which IC50 (Saccharomyces cerevisiae) is on record?
A: > 100 µM (inactive)

Q: And the EC50 [1]?
A: 3.91 µM (active)

Q: And the IC50 [2]?
A: > 100 µM (inactive)

Q: Which EC50 [3] does the source give for `CCN(CC)c1ccc2nc3c4ccccc4c(=O)cc-3oc2c1` [NILE RED] here?
A: < 0.5 µM (active)

Q: With `O=C(COc1ccccc1F)Nc1nnc(-c2ccc3ccccc3c2)o1` as the compound, how does the EC50 [4] read?
A: 1.8 µM (active)

Q: Which results are given for `O=[N+]([O-])c1cc(S(=O)(=O)N2CCCCCC2)ccc1Cl`?
A: AC50 [5]: > 52 µM (inactive); IC50 [6]: 2.88 µM (active); AC50 [7]: > 52 µM (inactive); AC50 [8]: > 52 µM (inactive); IC50 [9]: 8.01 µM (active); IC50 [10]: 10.1 µM (inactive); IC50 [11]: 5.8 µM (active)

Q: With `O=C(Cn1sc2ccccc2c1=O)Nc1ccccc1` as the compound, how does the IC50 (Hexokinase) read?
A: 6.69 µM (active)

Q: And the IC50 [12]?
A: 12.7 µM (active)

Q: And the IC50 [13]?
A: 73.1 µM (active)
